Measurements as given in PubChem BioAssay (NCI).
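Protocol summary: plate cells (96-well), add compound at 5 concentrations, incubate 48 h, interpolate endpoints linearly. Here, GI50 denotes the concentration required for 50% inhibition of growth. TGI: total growth inhibition.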

Key:
Assay in all cases: NCI anticancer screen, dose series, 48 h
SNB-75 CNS = tested on: SNB-75 CNS
OVCAR-4 ovarian = tested on: OVCAR-4 ovarian
NCI-H522 lung = tested on: NCI-H522 lung
MOLT-4 leukemia = tested on: MOLT-4 leukemia
MCF7 breast = tested on: MCF7 breast
NCI-H460 lung = tested on: NCI-H460 lung
LOX IMVI melanoma = tested on: LOX IMVI melanoma
ACHN renal = tested on: ACHN renal
NCI-H23 lung = tested on: NCI-H23 lung
MDA-N = tested on: MDA-N

Row | SMILES | TGI (SNB-75 CNS) | TGI (OVCAR-4 ovarian) | TGI (NCI-H522 lung) | TGI (MOLT-4 leukemia) | TGI (MCF7 breast) | TGI (NCI-H460 lung) | TGI (LOX IMVI melanoma) | TGI (ACHN renal) | TGI (NCI-H23 lung) | TGI (MDA-N) | GI50 (SNB-75 CNS) | GI50 (OVCAR-4 ovarian) | GI50 (NCI-H522 lung) | GI50 (MOLT-4 leukemia) | GI50 (MCF7 breast) | GI50 (NCI-H460 lung) | GI50 (LOX IMVI melanoma) | GI50 (ACHN renal) | GI50 (NCI-H23 lung)
1 | O=Nn1c2ccccc2c2ccccc21 | > 100 µM | > 100 µM | > 100 µM | > 100 µM | > 100 µM | > 100 µM | > 100 µM | > 100 µM | > 100 µM |  |  |  |  |  |  |  |  |  | 
2 | CCOC(=O)CCCc1cc(=O)c2c(C)c3[nH]c4ccc(Cl)cc4c3c(C)c2[nH]1 | 64 µM | 59.1 µM |  | > 100 µM | 47.4 µM | 32.7 µM | > 100 µM | 80.3 µM | > 100 µM | > 100 µM |  |  |  |  |  |  |  |  | 
3 | CC(=O)OC/C=C\Cn1ncc(=O)[nH]c1=O | 33.9 µM |  | 32.4 µM | 44 µM | 45.1 µM | 48.7 µM | 13.3 µM | 43.8 µM | 28.9 µM | 31.8 µM |  |  |  |  |  |  |  |  | 
4 | Nc1ccc(C2(c3ccc(N)cc3)C3CC4CC(C3)CC2C4)cc1 |  | 32.5 µM | 30.5 µM | 28.2 µM | 43.7 µM |  | 39.7 µM | 32.7 µM | 28.7 µM | 37.6 µM |  |  |  |  |  |  |  |  | 
5 | CC=C/C=C/[C@@H]1O[C@](O)([C@H](CC)C(=O)NC/C=C/C=C(\C)[C@@H](OC)[C@@H](C)[C@@H]2O[C@H](/C=C/C=C/C=C(\C)C(=O)c3c(O)cc[nH]c3=O)[C@H](O)[C@@H]2O)[C@H](O)[C@H](O)C1(C)C | > 100 µM | > 100 µM | > 100 µM | > 100 µM | > 100 µM | > 100 µM |  | > 100 µM | > 100 µM |  |  |  |  |  |  |  |  |  | 
6 | Fc1ccc(C2CC(c3cccc(Nc4ccncc4)c3)=NN2c2ccccc2)cc1 (stereo not drawn) | 2.87 µM | 3.07 µM | 3.98 µM | 5.81 µM | 3.48 µM | 3.19 µM | 3.02 µM | 3.11 µM | 3.33 µM |  | 1.29 µM | 1.61 µM | 1.81 µM | 2.47 µM | 1.74 µM | 1.76 µM | 1.66 µM | 1.71 µM | 1.75 µM
7 | Nc1nc(N)c(N=Nc2ccccc2)c(=O)[nH]1 | 23.7 µM | > 100 µM | > 100 µM | > 100 µM |  | > 100 µM | > 100 µM | 96.7 µM | 93 µM |  |  |  |  |  |  |  |  |  | 
8 | CCOP(=O)(OCC)C(Cc1c[nH]c2ccccc12)C(=O)O (stereo not drawn) | > 100 µM | > 100 µM | > 100 µM | > 100 µM | > 100 µM | > 100 µM | > 100 µM | > 100 µM | > 100 µM | > 100 µM |  |  |  |  |  |  |  |  | 
9 | O=S1(=O)C[C@H](NCc2ccccc2)[C@H](NCc2ccccc2)C1 | > 100 µM | > 100 µM | 68.2 µM | > 100 µM | > 100 µM | > 100 µM | > 100 µM | > 100 µM | > 100 µM | > 100 µM |  |  |  |  |  |  |  |  | 
10 | COc1ncnc2c(Cl)c(C(O)c3ccccc3)c(Cl)cc12 (stereo not drawn) | 97.8 µM | > 100 µM | > 100 µM | > 100 µM | > 100 µM | > 100 µM | > 100 µM | 97.2 µM | > 100 µM | 18.7 µM |  |  |  |  |  |  |  |  | 
11 | Cc1ccc(S(=O)(=O)NCCCSCCN)cc1 | > 100 µM | > 100 µM | > 100 µM | > 100 µM | > 100 µM | > 100 µM | > 100 µM | > 100 µM | > 100 µM | > 100 µM |  |  |  |  |  |  |  |  | 
12 | COc1ccc(/C=C/c2cc(O)cc(OC3OC(CO)C(O)C(O)C3O)c2)cc1O (stereo not drawn) | > 100 µM | > 100 µM | > 100 µM | > 100 µM | > 100 µM | > 100 µM | > 100 µM | > 100 µM |  | > 100 µM |  |  |  |  |  |  |  |  | 
13 | OCC1NC(CO)C(O)C1O (stereo not drawn) | > 100 µM | > 100 µM |  | > 100 µM | > 100 µM | > 100 µM | > 100 µM |  | > 100 µM | > 100 µM |  |  |  |  |  |  |  |  | 
14 | O=C(Nc1ccc(C(F)(F)F)cc1[N+](=O)[O-])C(=O)Nn1c(=S)[nH]c2ccccc2c1=O | > 100 µM | > 100 µM | > 100 µM | > 100 µM |  | > 100 µM | > 100 µM | > 100 µM | > 100 µM |  |  |  |  |  |  |  |  |  | 
15 | CC(C)N(CCNc1nc(C(Cl)(Cl)Cl)nc2cc(Cl)ccc12)C(C)C | 3.84 µM | 2.96 µM | 2.63 µM |  | 3.05 µM | 2.6 µM |  | 2.66 µM | 3.47 µM |  | 1.84 µM | 1.35 µM | 1.16 µM |  | 1.54 µM | 1.13 µM |  | 1.29 µM | 1.61 µM
